Test results taken from patent US7309710B2, “Crystals” (Astellas Pharma Inc., priority 2002, dated 2007).

Tests used:
[1] = test system: antigen-induced airway eosinophilia; test: Antigen-induced airway eosinophilia (rat); type: in vivo; details: test described in patent reference 1
Source text: (§1) 4,6-Diemthyl-4′-[3,5-bis(trifluoromethyl)-1H-pyrazol-1-yl]nicotinanilide is excellent in terms of the CRACC inhibitory activity, the inhibition selectivity over VOCC, and the activity of suppressing IL-2 production. […] Therefore, a pharmaceutical product containing the compound is useful as an agent for preventing or treating allergic, inflammatory or autoimmune diseases in which CRACC and IL-2 participates. Herein, the allergic, inflammatory or autoimmune diseases include, for example, bronchial asthma, psoriasis, atopic diseases including atopic dermatitis, inflammatory bowel diseases including Crohn disease, digestive ulcer, nephritis, hepatitis, pancreatitis, collagenosis, rheumatoid arthritis, osteoarthritis, and rejection on transplantation. The usefulness on these diseases can be confirmed at the in vitro tests of the CRACC inhibitory activity and the activity of suppressing IL-2 production as described in the patent reference 1 and at various tests using, for example, antigen-induced airway eosinophilia model as a typical disease model of bronchial asthma, and murine collagen-induced arthritis model. 4,6-Dimethyl-4′-[3,5-bis (trifluoromethyl)-1H-pyrazol-1-yl]nicotinanilide may be produced by the method described in the patent reference 1.

[2] = test system: Ca2+ release-activated Ca2+ channel (CRACC); test: CRACC inhibitory activity (in vitro test as described in patent reference 1); type: cell-based
Source text: as §1

IL-2 production = test: Activity of suppressing IL-2 production; type: cell-based
Source text: as §1

[3] = test system: collagen-induced arthritis; test: Murine collagen-induced arthritis model; type: in vivo; details: test described in patent reference 1
Source text: as §1

[4] = test system: TNCB-induced Contact Hypersensitivity; test: Suppression of TNCB-induced Contact Hypersensitivity; type: in vivo; details: test described in patent reference 1
Source text: as §1

[5] = test system: voltage-operated Ca2+ channel (VOCC); test: Inhibition selectivity for CRACC over VOCC; type: cell-based
Source text: A pyrazole derivative having a high inhibition selectivity for CRACC over voltage-operated Ca^2+ channel (abbreviated as VOCC hereinafter) involved in intracellular calcium regulation of excitatory cells such as smooth muscle cells and nerve cells and having an inhibitory activity against IL-2 production has been reported (for example, patent reference 1).
4,6-Diemthyl-4′-[3,5-bis(trifluoromethyl)-1H-pyrazol-1-yl]nicotinanilide is excellent in terms of the CRACC inhibitory activity, the inhibition selectivity over VOCC, and the activity of suppressing IL-2 production. […] Therefore, a pharmaceutical product containing the compound is useful as an agent for preventing or treating allergic, inflammatory or autoimmune diseases in which CRACC and IL-2 participates. Herein, the allergic, inflammatory or autoimmune diseases include, for example, bronchial asthma, psoriasis, atopic diseases including atopic dermatitis, inflammatory bowel diseases including Crohn disease, digestive ulcer, nephritis, hepatitis, pancreatitis, collagenosis, rheumatoid arthritis, osteoarthritis, and rejection on transplantation. […]

[6] = Stability test of the crystals (assay value by HPLC, internal standard method); type: physicochemical; details: for Stability test: assay value by HPLC (internal standard method, peak area): 40° C. under light-resistant; for Stability of the crystal: at 5 to 60° C. for at least three months
Protocol: Because both the α type and β type crystals are stable at 5 to 60° C. for at least three months and can be highly purified by recrystallization, these crystals may be used as raw materials for producing pharmaceutical products. Particularly, these crystals are preferable as raw materials for producing solid pharmaceutical preparations.
(The values express the assay values determined by an internal standard method on the basis of peak area obtained by HPLC)

For `Cc1cc(C)c(C(=O)Nc2ccc(-n3nc(C(F)(F)F)cc3C(F)(F)F)cc2)cn1` [4,6-dimethyl-4′-[3,5-bis(trifluoromethyl)-1H-pyrazol-1-yl]nicotinanilide], the “activity of suppressing of antigen-induced airway eosinophilia” value [1] was “very good activities”, the CRACC inhibitory activity [2] was “excellent” and the “activity of suppressing IL-2 production” value (IL-2 production) was “excellent”. For the same molecule, the “activity of suppressing the arthritis in murine collagen-induced arthritis model” value [3] was “very good activities”, the “effect on the suppression of TNCB-induced Contact Hypersensitivity” value [4] was “very good activities” and the “inhibition selectivity over VOCC” value [5] was “excellent”.
With `Cc1cc(C)c(C(=O)Nc2ccc(-n3nc(C(F)(F)F)cc3C(F)(F)F)cc2)cn1` [α type crystal, 4,6-dimethyl-4′-[3,5-bis(trifluoromethyl)-1H-pyrazol-1-yl]nicotinanilide] the “Stability test: assay value by HPLC (internal standard method, peak area)” value (shortened to “Stability test: assay value by HPLC”) ([6]; After 1 month) was 100.7%, the “Stability test: assay value by HPLC” value ([6]; After 3 months) was 99.2% and the “Stability of the crystal” value [6] was “stable”.
For `Cc1cc(C)c(C(=O)Nc2ccc(-n3nc(C(F)(F)F)cc3C(F)(F)F)cc2)cn1` [β type crystal, 4,6-dimethyl-4′-[3,5-bis(trifluoromethyl)-1H-pyrazol-1-yl]nicotinanilide], the “Stability test: assay value by HPLC” value ([6]; After 1 month) was 99.7%, the “Stability test: assay value by HPLC” value ([6]; After 3 months) was 100.7% and the “Stability of the crystal” value [6] was “stable”.
